Reference: patent US20040048279A1, “Method for detecting methylation states for a toxicological diagnostic” (priority 2000, published 2004)

Legend:
Cyp1a1 = details: mice exposed to the substance; Arch Biochem Biophys 2000;376(1):66-73; cited from earlier work
HT29-P208 cells = experiment: Methylation state of CpG positions by bisulfite treatment, multiplex PCR and oligonucleotide array hybridization in treated HT29-P208 cells; assay type: cell-based; details: for methylation state of selected CpG positions of the genes EGFR, ANT1 and CDC25A (CG signal / (CG+TG signal)): trichostatin 50 nM or milrinone 50 μM, FIG. 4; for methylation state of selected CpG positions of the genes EGFR, ANT1 and CDC25A (CG signal / (CG+TG signal)) / methylation state of selected CpGs of the genes TGF-a, EGFR, ANT1 and E-cadherin (CG signal / (CG+TG signal)): treated versus untreated; for methylation state of selected CpGs of the genes TGF-a, EGFR, ANT1 and E-cadherin (CG signal / (CG+TG signal)): FIG. 3; for differences in methylation of 64 gene fragments versus controls: treatment time 6 h (data not shown); for degree of methylation of various CpG positions of 64 gene fragments, in contrast to controls (HT29-P208 in medium): treatment time 24 h, 10 ng/ml TGF-b1 or 10 ng/ml IL-1b in medium, FIGS. 1 and 2, p<0.05
Description: HT-29 P208 cells (5×10^4 cells/ml) were seeded in culture dishes (33×5 cm) and grown for 5 days in DMEM/Ham's F-12 medium, which was supplemented with 10% fetal calf serum at 37° C. and 5% CO2, up to 95% confluence (Campbell-Thompson, M. and Bhardwaj, B., Cancer Research 2001, 61, 632-640). The cells were then incubated for 24 h in medium not containing calf serum. After repeated change of medium, the cells were incubated in 3 parallel cultures for 6 h and 24 h, either with medium, medium supplemented with 10 ng/ml TGF-b1, medium supplemented with 10 ng/ml IL-1b, medium supplemented with trichostatin (50 nM) or medium supplemented with milrinone (50 μM). The cells freed of medium were treated with trypsin, centrifuged, and resuspended in 200 μl of PBS buffer (Fritsch and Maniatis eds., Molecular Cloning: A Laboratory Manual, 1989), and stored at −20° C. The chromosomal DNA was purified with a QIAamp Kit according to the manufacturer's instructions (Qiagen, Hilden).
The DNA samples (20 ng) were digested with the restriction enzyme Mss1. The digested DNA was chemically converted with hydrogen sulfite (bisulfite, disulfite) and a radical trap at elevated temperature (DE 10050942). In this way, after alkaline hydrolysis, all unmethylated cytosines are converted to uracil, which correspond in their base-pairing behavior to thymidine. In contrast, 5-methylcytosine is not modified under these conditions.
The chemically pretreated DNA was then amplified with the use of a heat-stable DNA polymerase in a polymerase chain reaction. The multiplex PCR reactions were conducted with a thermocycler (Eppendorf GmbH) with the use of 10 ng of bisulfite-treated DNA, each time with […] of primer oligonucleotides (mixture of up to 32 individual primer oligonucleotides; see Table 3), 800 μM dNTPs and 4.5 mM magnesium chloride. The cycler program was as follows: step 1, 14 min at 96° C.; step 2, 60 sec 96° C.; step 3, 45 sec 55° C.; step 4, 75 sec 72° C.; step 5, 10 min at 72° C.; steps 2 to 4 were repeated 39 times.
The DNA fragments of 64 different genes listed in Table 3 were amplified with 6 sets of multiplex PCR (mPCR) and with bisulfite-treated DNA as the template, as described above. The mPCR reactions (I, J, K, L, M, N) of the genomic, bisulfite-treated DNA were conducted with the combination of primer oligonucleotides as listed in Table 3. It is also possible, however, to use other primer oligonucleotides in the same way for the amplification of the genomic, bisulfite-treated DNA. The primer pairs listed in Table 1, however, are particularly preferred.
The amplificates produced in Example 2 were hybridized with 512 oligonucleotides, which were bound to a solid phase (Model, F. and Adorjian, P., Bioinformatics 2001, 17 Suppl. 1, 157-164). The solid phase loaded with oligonucleotides is named an oligonucleotide array below. The detectability of the hybridization product is based on primer oligonucleotides fluorescently labeled with Cy5, which were used for the amplification. A hybridization reaction of the amplified DNA with the oligonucleotide, for example, GTTTTTTTCGTTTTAGAG (Sequence ID 6), occurs only when a methylated cytosine is present at the said site of the bisulfite-treated DNA. Thus, the methylation state of the specific cytosine can be determined by means of the hybridization product. In order to verify the methylation state of said position, an oligonucleotide is found on the oligonucleotide array, which permits it to detect the unmethylated cytosine. This oligonucleotide is identical to the oligonucleotide which was previously used for the analysis of the methylated status of the sample, with the exception that the oligonucleotide bears a thymine base instead of a cytosine base at the position to be analyzed, e.g., GTTTTTTTTGTTTTAGAG (Sequence ID 7). Thus, a hybridization reaction occurs only if an unmethylated cytosine is present at the position to be analyzed. […]

Row | Compound | Cyp1a1 gene expression after exposure (Cyp1a1) | methylation state of selected CpG positions of the genes EGFR, ANT1 and CDC25A (CG signal / (CG+TG signal)) (HT29-P208 cells) | methylation state of selected CpGs of the genes TGF-a, EGFR, ANT1 and E-cadherin (CG signal / (CG+TG signal)) (HT29-P208 cells) | differences in methylation of 64 gene fragments versus controls (HT29-P208 cells) | degree of methylation of various CpG positions of 64 gene fragments, in contrast to controls (HT29-P208 in medium) (HT29-P208 cells)
1 | O=c1cc(-c2ccccc2)oc2ccc3ccccc3c12 [beta-naphthoflavone] | induced | – | – | – | –
2 | Cc1[nH]c(=O)c(C#N)cc1-c1ccncc1 [milrinone, reference compound] | – | reduction in the methylation state | – | – | –
3 | CC(/C=C/C(=O)NO)=C\[C@@H](C)C(=O)c1ccc(N(C)C)cc1 [trichostatin, reference compound] | – | increase | – | – | –
4 | IL-1b: IL-1b (interleukin), exogenous cytokine added to medium at 10 ng/ml | – | – | no change or to an increase in the methylation state | no significant differences in methylation | greater degree of methylation
5 | TGF-b1: TGF-b1 (transforming growth factor), exogenous cytokine added to medium at 10 ng/ml | – | – | significant reduction of the methylation state | no significant differences in methylation | smaller degree of methylation
